{"source": "patent EP2583674A2", "about": "“ACECLOFENAC SLOW-RELEASE PREPARATION PROVIDING AN OPTIMUM PHARMACOLOGICAL CLINICAL EFFECT WHEN ADMINISTERED ONCE A DAY” (Korea United Pharm, Inc., priority 2010, dated 2011)", "origin": "cited, not measured here", "key": {"[1]": {"conditions": "aceclofenac and the metabolites thereof"}}}
{"smiles": "O=C(O)COC(=O)Cc1ccccc1Nc1c(Cl)cccc1Cl", "note": "[aceclofenac, 2-[(2,6-dichlorophenyl)amino]-phenylacetoxyacetic acid]", "values": [{"measurement": "excreted through stool", "setting": "[1]", "value": "approximately 20%"}, {"measurement": "excreted through urine", "setting": "[1]", "value": "approximately 70%"}, {"measurement": "excretion rate (half-life)", "setting": "in vivo", "value": "approximately 4 hours"}, {"measurement": "duration", "setting": "orally administered", "value": "approximately 12 hours"}, {"measurement": "onset time", "setting": "orally administered", "value": "≤ 30", "unit": "min"}]}
